From patent US20080146570A1, “Chemical Compounds” (ASTRAZENECA AB, priority 2005, published 2008)

Target: T1, human recombinant, purified wild type His-B-Raf protein kinase (Homo sapiens, UniProt P15056)
T1 construct: His
Experiment: B-Raf In Vitro ELISA Assay
Type: biochemical
Settings: ELISA of MEK1 phosphorylation; 2.5 nM B-Raf, 10 μM ATP; 1 hour preincubation at 25° C.
Protocol: B-Raf In Vitro ELISA Assay
Activity of human recombinant, purified wild type His-B-Raf protein kinase was determined in vitro using an enzyme-linked immunosorbent assay (ELISA) assay format, which measures phosphorylation of the B-Raf substrate, human recombinant, purified His-derived (detagged) MEK1. The reaction utilized 2.5 nM B-Raf, 0.15 μM […] and 10 μM adenosine triphosphate (ATP) in 40 mM N-(2-hydroxyethyl)piperazine-N′-(2-ethanesulfonic acid hemisodium salt (HEPES), 5 mM 1,4-dithio-DL-threitol (DTT), 10 mM MgCl2, 1 mM ethylenediaminetetraacetic acid (EDTA) and 0.2 M NaCl (1×HEPES buffer), with or without compound at various concentrations, in a total reaction volume of 25 μl in 384 well plates. B-Raf and compound were preincubated in 1×HEPES buffer for 1 hour at 25° C. Reactions were initiated with addition of MEK1 and ATP in 1×HEPES buffer and incubated at 25° C. for 50 minutes and reactions stopped by addition of 10 μl 175 mM EDTA (final concentration 50 mM) in 1×HEPES buffer. 5 μl of the assay mix was then diluted 1:20 into 50 mM EDTA in 1×HEPES buffer, transferred to 384 well black high protein binding plates and incubated overnight at 4° C. […] Blue fluorescent product was detected at excitation 325 and emission 420 using a TECAN Ultra plate reader. Data was graphed and IC50s calculated using Excel Fit (Microsoft).

T1 sequence (P15056 whole entry): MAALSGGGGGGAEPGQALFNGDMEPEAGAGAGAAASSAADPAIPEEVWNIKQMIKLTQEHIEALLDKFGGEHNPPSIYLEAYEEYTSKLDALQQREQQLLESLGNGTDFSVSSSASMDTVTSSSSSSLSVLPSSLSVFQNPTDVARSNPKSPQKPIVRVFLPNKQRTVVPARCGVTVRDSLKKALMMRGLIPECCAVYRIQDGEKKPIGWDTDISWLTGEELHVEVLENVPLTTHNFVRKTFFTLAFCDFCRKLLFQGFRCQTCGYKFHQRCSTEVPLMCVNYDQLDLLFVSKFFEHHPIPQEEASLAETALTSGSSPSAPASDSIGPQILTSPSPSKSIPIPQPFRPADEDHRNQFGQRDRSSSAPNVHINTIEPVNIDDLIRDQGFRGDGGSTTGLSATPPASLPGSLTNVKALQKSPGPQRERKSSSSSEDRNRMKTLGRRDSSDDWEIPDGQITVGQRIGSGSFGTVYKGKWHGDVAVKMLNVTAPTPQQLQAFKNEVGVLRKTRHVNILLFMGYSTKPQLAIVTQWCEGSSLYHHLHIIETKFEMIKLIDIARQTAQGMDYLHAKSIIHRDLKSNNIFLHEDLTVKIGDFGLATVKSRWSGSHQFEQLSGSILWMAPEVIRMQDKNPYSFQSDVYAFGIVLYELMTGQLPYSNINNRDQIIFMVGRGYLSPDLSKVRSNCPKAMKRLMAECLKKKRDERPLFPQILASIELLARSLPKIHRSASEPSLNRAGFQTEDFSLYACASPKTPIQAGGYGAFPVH

Row | IC50 | SMILES
1 | 153 nM | Cc1ccc(NC(=O)c2cccc(C(C)(C)C#N)c2)cc1Nc1ccnc(-c2cccnc2)n1 [Example 2, 3-(1-Cyano-1-methylethyl)-N-{4-methyl-3-[(2-pyridin-3-ylpyrimidin-4-yl)amino]phenyl}benzamide]
2 | 1350 nM | Cc1ccc(NC(=O)c2cccc(C(C)(C)C#N)c2)cc1Nc1cc(NC2CC2)nc(-c2cccnc2)n1 [Example 4, 3-(Cyano-dimethyl-methyl)-N-[3-(6-cyclopropylamino-2-pyridin-3-yl-pyrimidin-4-ylamino)-4-methyl-phenyl]benzamide]
